Data on 24 molecules can be found in US9169254B2, “Spiroimidazolone derivative” (Chugai Seiyaku Kabushiki Kaisha, priority 2009, dated 2015).

This experiment deals with T1, human PTH1 receptor (Homo sapiens, UniProt Q03431).
T1 sequence (Q03431 27-593): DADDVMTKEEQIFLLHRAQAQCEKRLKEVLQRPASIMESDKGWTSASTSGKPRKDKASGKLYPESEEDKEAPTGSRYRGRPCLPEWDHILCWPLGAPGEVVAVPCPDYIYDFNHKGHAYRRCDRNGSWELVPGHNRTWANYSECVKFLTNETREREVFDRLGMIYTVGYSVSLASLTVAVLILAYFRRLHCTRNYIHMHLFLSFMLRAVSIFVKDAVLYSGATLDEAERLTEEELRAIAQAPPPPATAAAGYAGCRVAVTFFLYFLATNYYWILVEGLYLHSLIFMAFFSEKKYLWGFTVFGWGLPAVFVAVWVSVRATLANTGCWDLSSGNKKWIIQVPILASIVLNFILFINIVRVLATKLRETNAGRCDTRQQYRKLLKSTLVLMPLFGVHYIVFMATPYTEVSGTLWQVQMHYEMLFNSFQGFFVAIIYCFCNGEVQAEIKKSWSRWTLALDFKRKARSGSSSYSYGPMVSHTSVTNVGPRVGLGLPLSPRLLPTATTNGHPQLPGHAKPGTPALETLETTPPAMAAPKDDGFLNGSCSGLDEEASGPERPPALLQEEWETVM
Nature of the experiment: In vitro cAMP signal activity in HKRK-B7 cells (LLC-PK1 cells overexpressing the human PTH1 receptor). In kind it is cell-based. As to conditions: HKRK-B7 cells; compound at 1×10^−3 M; cAMP produced as percentage of that produced by hPTH(1-34) at 100 nM.
For `Cc1cc(NS(=O)(=O)NCCCO)ccc1CCS(=O)(=O)N1CCC2(CC1)N=C(c1cccc(OC(F)(F)F)c1)NC2=O` [Compound 875, N-(3-hydroxy-propyl)-N′-(3-methyl-4-{2-[4-oxo-2-(3-trifluoromethoxy-phenyl)-1,3,8-triaza-spiro[4.5]dec-1-ene-8-sulfonyl]-ethyl}-phenyl)-sulfamide], the “cAMP production activity (%)” value turned out to be 65%.
Under `Cc1cc(C(=O)N2CCC(C)(O)CC2)cc(C)c1/C=C/S(=O)(=O)N1CCC2(CC1)N=C(c1ccc(OCCCC(F)(F)C(F)(F)F)c(F)c1)NC2=O` [Compound 1207, 2-[3-fluoro-4-(4,4,5,5,5-pentafluoro-pentyloxy)-phenyl]-8-{(E)-2-[4-(4-hydroxy-4-methyl-piperidine-1-carbonyl)-2,6-dimethyl-phenyl]-ethenesulfonyl}-1,3,8-triaza-spiro[4.5]dec-1-en-4-one] stands 112%.
Take `O=C1NC(c2ccc(Cl)cc2)=NC12CCN(S(=O)(=O)/C=C/c1cccc3c1ccn3C[C@H](O)CO)CC2` [Compound 250, 2-(4-chloro-phenyl)-8-{(E)-2-[1-((S)-2,3-dihydroxy-propyl)-1H-indol-4-yl]-ethenesulfonyl}-1,3,8-triaza-spiro[4.5]dec-1-en-4-one]: the “cAMP production activity (%)” value is 62%.
Under `Cc1c(CCS(=O)(=O)N2CCC3(CC2)N=C(c2cccc(OC(F)(F)F)c2)NC3=O)cccc1C(N)=O` [Compound 410, 2-methyl-3-{2-[4-oxo-2-(3-trifluoromethoxy-phenyl)-1,3,8-triaza-spiro[4.5]dec-1-ene-8-sulfonyl]-ethyl}-benzamide] stands 96%; under `Cc1cc(NCC(=O)NCCN(C)C)ccc1CCS(=O)(=O)N1CCC2(CC1)N=C(c1cccc(OC(F)(F)F)c1)NC2=O` [Compound 665, N-(2-Dimethylamino-ethyl)-2-(3-methyl-4-{2-[4-oxo-2-(3-trifluoromethoxy-phenyl)-1,3,8-triaza-spiro[4.5]dec-1-ene-8-sulfonyl]-ethyl}-phenylamino)-acetamide], 54%.
Under `Cc1cc(NCC(=O)N2CCN(C)CC2)ccc1/C=C/S(=O)(=O)N1CCC2(CC1)N=C(c1cccc(OC(F)(F)F)c1)NC2=O` [Compound 528, 8-((E)-2-{2-methyl-4-[2-(4-methyl-piperazin-1-yl)-2-oxo-ethylamino]-phenyl}-ethenesulfonyl)-2-(3-trifluoromethoxy-phenyl)-1,3,8-triaza-spiro[4.5]dec-1-en-4-one] stands 55%; under `Cc1cc(N(C)C(N)=O)cc(C)c1CCS(=O)(=O)N1CCC2(CC1)N=C(c1ccc(Cl)c(C(F)(F)F)c1)NC2=O` [Compound 1150, 1-(4-{2-[2-(4-Chloro-3-trifluoromethyl-phenyl)-4-oxo-1,3,8-triaza-spiro[4.5]dec-1-ene-8-sulfonyl]-ethyl}-3,5-dimethyl-phenyl)-1-methyl-urea], 107%; under `O=C(c1ccc2ncccc2c1)N1CCCC(C2=NC3(CCN(S(=O)(=O)CCc4cccc5ccccc45)CC3)C(=O)N2)C1` (stereo not drawn) [Compound 431, 8-(2-naphthalen-1-yl-ethanesulfonyl)-2-[1-(quinoline-6-carbonyl)-piperidin-3-yl]-1,3,8-triaza-spiro[4.5]dec-1-en-4-one], 14%.
Regarding `CN(C)C(=O)c1ccc(-c2ccc(S(=O)(=O)N3CCC4(CC3)N=C(c3cccc(C(F)(F)F)c3)NC4=O)s2)cc1` [Compound 329, N,N-Dimethyl-4-{5-[4-oxo-2-(3-trifluoromethyl-phenyl)-1,3,8-triaza-spiro[4.5]dec-1-ene-8-sulfonyl]-thiophen-2-yl}-benzamide], the “cAMP production activity (%)” value came to 33%.
As for `O=C1NC(c2ccc(Cl)cc2Cl)=NC12CCN(S(=O)(=O)CCc1cccc3ccccc13)CC2` [Compound 47, 2-(2,4-dichloro-phenyl)-8-(2-naphthalen-1-yl-ethanesulfonyl)-1,3,8-triaza-spiro[4.5]dec-1-en-4-one], the “cAMP production activity (%)” value turned out to be 45%.
Under `Cc1cc(C(=O)N2CCN(C(=O)CO)CC2)cc(C)c1/C=C/S(=O)(=O)N1CCC2(CC1)N=C(c1cccc(OC(F)(F)F)c1)NC2=O` [Compound 447, 8-((E)-2-{4-[4-(2-Hydroxy-acetyl)-piperazine-1-carbonyl]-2,6-dimethyl-phenyl}-ethenesulfonyl)-2-(3-trifluoromethoxy-phenyl)-1,3,8-triaza-spiro[4.5]dec-1-en-4-one] stands 89%.
Under `CC(=O)Nc1ccc(CCS(=O)(=O)N2CCC3(CC2)N=C(c2cccc(Cl)c2Cl)NC3=O)c(C)c1` [Compound 147, N-(4-{2-[2-(2,3-dichloro-phenyl)-4-oxo-1,3,8-triaza-spiro[4.5]dec-1-ene-8-sulfonyl]-ethyl}-3-methyl-phenyl)-acetamide] stands 105%; under `Cc1cc(C(=O)N2CCN(CCF)CC2)cc(C)c1/C=C/S(=O)(=O)N1CCC2(CC1)N=C(C1CCC(CCC(F)(F)F)CC1)NC2=O` (stereo not drawn) [Compound 549, 8-((E)-2-{4-[4-(2-fluoro-ethyl)-piperazine-1-carbonyl]-2,6-dimethyl-phenyl}-ethenesulfonyl)-2-[4-(3,3,3-trifluoro-propyl)-cyclohexyl]-1,3,8-triaza-spiro[4.5]dec-1-en-4-one], 86%; under `O=C1NC(c2cccc(C(F)(F)F)c2)=NC12CCN(S(=O)(=O)c1ccc3ccccc3c1)CC2` [Compound 67, 8-(naphthalene-2-sulfonyl)-2-(3-trifluoromethyl-phenyl)-1,3,8-triaza-spiro[4.5]dec-1-en-4-one], 53%.
For `Cc1cc(N(C)C(N)=O)cc(C)c1/C=C/[S@TB4](=O)(=O)N1CCC2(CC1)N=C(c1cccc(CCCC(F)(F)F)c1)NC2=O` [Compound 1089, 1-[3,5-dimethyl-4-((E)-2-{4-oxo-2-[3-(4,4,4-trifluoro-butyl)-phenyl]-1,3,8-triaza-spiro[4.5]dec-1-ene-8-sulfonyl}-vinyl)-phenyl]-1-methyl-urea] the value was 99%; for `O=C1NC(C2CCCCC2)=NC12CCN(S(=O)(=O)/C=C/c1nccs1)CC2` [Compound 343, 2-Cyclohexyl-8-((E)-2-thiazol-2-yl-ethenesulfonyl)-1,3,8-triaza-spiro[4.5]dec-1-en-4-one], 13%; for `Cc1cc(C(=O)N(C)C)ccc1CCS(=O)(=O)N1CCC2(CC1)N=C(c1cccc(Cl)c1)NC2=O` [Compound 81, 4-{2-[2-(3-chloro-phenyl)-4-oxo-1,3,8-triaza-spiro[4.5]dec-1-ene-8-sulfonyl]-ethyl}-3,N,N-trimethyl-benzamide], 57%.
With `Cc1cc(N(C)C(N)=O)cc(C)c1/C=C/S(=O)(=O)N1CCC2(CC1)N=C(CCCCCCCC(F)(F)C(F)(F)F)NC2=O` [Compound 1303, 1-(3,5-dimethyl-4-{(E)-2-[4-oxo-2-(8,8,9,9,9-pentafluoro-nonyl)-1,3,8-triaza-spiro[4.5]dec-1-ene-8-sulfonyl]-vinyl}-phenyl)-1-methyl-urea], the “cAMP production activity (%)” value worked out at 102%.
For `Cc1cc(N(C)C(N)=O)cc(C)c1/C=C/[S@TB3](=O)(=O)N1CCC2(CC1)N=C(c1ccc(CCCCCC(F)(F)F)cc1)NC2=O` [Compound 1117, 1-[3,5-dimethyl-4-((E)-2-{4-oxo-2-[4-(6,6,6-trifluoro-hexyl)-phenyl]-1,3,8-triaza-spiro[4.5]dec-1-ene-8-sulfonyl}-vinyl)-phenyl]-1-methyl-urea] the value was 88%.
Under `Cc1cc(N(C)C(N)=O)cc(C)c1CCS(=O)(=O)N1CCC2(CC1)N=C(CCCCCCCCC(F)F)NC2=O` [Compound 1323, 1-(4-{2-[2-(9,9-Difluoro-nonyl)-4-oxo-1,3,8-triaza-spiro[4.5]dec-1-ene-8-sulfonyl]-ethyl}-3,5-dimethyl-phenyl)-1-methyl-urea] stands 78%.
For `Cc1cc(C(=O)N(C)C)ccc1CCS(=O)(=O)N1CCC2(CC1)N=C(c1c(F)cccc1F)NC2=O` [Compound 78, 4-{2-[2-(2,6-difluoro-phenyl)-4-oxo-1,3,8-triaza-spiro[4.5]dec-1-ene-8-sulfonyl]-ethyl}-3,N,N-trimethyl-benzamide] the value was 31%; for `Cc1cc(C(=O)N2CCC(C)(O)CC2)cc(C)c1/C=C/S(=O)(=O)N1CCC2(CC1)N=C(c1cccc(C(C)(F)F)c1)NC2=O` [Compound 1206, 2-[3-(1,1-difluoro-ethyl)-phenyl]-8-{(E)-2-[4-(4-hydroxy-4-methyl-piperidine-1-carbonyl)-2,6-dimethyl-phenyl]-ethenesulfonyl}-1,3,8-triaza-spiro[4.5]dec-1-en-4-one], 88%; for `CC(C)(C)NC(=O)N1CCCC(C2=NC3(CCN(S(=O)(=O)c4cccc(Cl)c4)CC3)C(=O)N2)C1` (stereo not drawn) [Compound 454, 3-[8-(3-Chloro-benzenesulfonyl)-4-oxo-1,3,8-triaza-spiro[4.5]dec-1-en-2-yl]-piperidine-1-carboxylic acid tert-butylamide], 19%.
For `Cc1cc(CN2C(=O)CCC2=O)cc(C)c1/C=C/S(=O)(=O)N1CCC2(CC1)N=C(C1CCC(CCC(F)(F)F)CC1)NC2=O` (stereo not drawn) [Compound 557, 1-[3,5-dimethyl-4-((E)-2-{4-oxo-2-[4-(3,3,3-trifluoro-propyl)-cyclohexyl]-1,3,8-triaza-spiro[4.5]dec-1-ene-8-sulfonyl}-vinyl)-benzyl]-pyrrolidine-2,5-dione], the “cAMP production activity (%)” value is 50%.
